Target: GABA-A receptor
Assay: 35S-TBPS binding assay (GABAA receptor binding ability test)
Design: species or system Sprague-Dawley rat
Conditions: rat cerebral cortex cell membrane, 5 μM GABA, 2 nM 35S-TBPS; read-out: 35S-TBPS bindng test: IC50 on inhibiting the TBPS binding activity
Experimental: 1.2 Experimental Procedures 1.2.1 Extraction of Cerebral Cortex Cell Membrane:
1. The cerebral cortex of male Sprague-Dawley rat was isolated.
2. A pre-chilled 0.32 M sucrose solution (one tablet of protease inhibitor was added per 100 ml) was added to the cerebral cortex (the volume of sucrose solution was 10 times the volume of the cerebral cortex). The mixture was crushed with a 50 mL glass tissue homogenizer in batches and mixed well.
3. The mixture was centrifuged at 1500 g, 4° C. for 10 minutes, and the supernatant was collected.
4. The mixture was centrifuged at 20000 g, 4° C. for 30 minutes, and the supernatant was discarded.
5. The precipitate was resuspended with the pre-chilled phosphate buffer saline (PBS) (one tablet of protease inhibitor was added per 100 ml). An average of 4 ml of PBS was added per rat, and the mixture was mixed well by a glass tissue homogenizer.
6. The mixture was centrifuged at 10000 g, 4° C. for 10 minutes, and the supernatant was discarded.
7. Steps 5 and 6 were repeated three times.
8. Finally, the precipitate was resuspended with 4 volumes of PBS. The resulting solution was dispensed, frozen in liquid nitrogen, and stored at −80° C.
9. The protein concentration was measured by the bicinchoninic acid (BCA) method.
1.2.2 ^35S-TBPS Binding Assay
1. 230 μL of PBS was added to each well of a well plate with 1.1 ml volume.
2. 60 μL of the cerebral cortex cell membrane (5 μg/μL) solution was added to each well, and the mixture was mixed well.
3. The test compound (3 μL per well) was added, and the plate was incubated at 25° C. for 5 minutes. The DMSO concentration was 1%. The initial compound concentration was 1 μM, and a 3-fold dilution in gradient was carried out to obtain a total of 8 gradients and 2 replicates. 1% DMSO was used as a negative control, and 10 μM P026-2 was used as a positive control.
4. GABA was added at a final concentration of 5 μM, and incubated at 25° C. for 5 minutes. 1 mM GABA solution was formulated, and 1.5 μL of the solution was added to each well.
5. ^35S-TBPS was added at a final concentration of 2 nM. The concentration of isotope mother solution was 9.7 μM. After dilution with PBS for 100 times, 6 μL of the diluted isotope solution was added to each well.
6. The plate was incubated at 4° C. for 20 hours.
7. The FilterMate GF/C plate was pre-treated with 0.5% PEI, and incubated at 4° C. for 1 hour.
8. The FilterMate GF/C plate was washed with Universal Harvester twice, 50 ml PBS each time.
9. The reaction solution was transferred to the GF/C plate, and each well was washed 4 times with 900 μL of PBS.
10. The washed GF/C plate was placed at 55° C. and dried for 10 minutes.
11. 40 μL of scintillation solution was added to each well, and the CPM value was read with TopCount.
1.2.3 Experimental Data Processing Method:
In the experiment, the CPM (counts per minute) value was read with TopCount. According to the readings of the High control (DMSO) and the Low control ([…] of the positive compound) experimental groups, the […] inhibition was calculated based on the following formula: % Inhibition=100×(CPMHigh control−CPMSample)/(CPMHigh control−CPMLow control)
The IC50 of the compound was calculated according to the following 4-parameter nonlinear logic formula: Y=Bottom+(Top−Bottom)/(1+10^((Log IC50−X)*Hill Slope)),
wherein: • X represents the log of compound concentration, • Y represents the 0 Inhibition.
The effect of the compound of the present invention on the TBPS binding activity was determined by the above test, and the measured IC50 values are shown in Table 1.

Compound | IC50 [µM]
C[C@@]1(O)CC[C@H]2[C@H](CC[C@@H]3[C@@H]2CC[C@@]2(C)[C@H]3[C@@H]3C[C@@H]3[C@@H]2C(=O)Cn2cc3ccncc3n2)C1 [Example 41, 1-((2R,4aS,4bR,6aS,7S,7aS,8aR,8bR,8cR,10aR)-2-hydroxy-2,6a-dimethyloctadecahydrocyclopropa[4,5]cyclopenta[1,2-a]phenanthren-7-yl)-2-(2H-pyrazolo[3,4-c]pyridin-2-yl)ethan-1-one] | 0.0227
C[C@@]1(O)CC[C@H]2[C@H](CC[C@@H]3[C@@H]2CC[C@@]2(C)[C@H]3[C@@H]3C[C@@H]3[C@@H]2C(=O)Cn2ncc3ccncc32)C1 [Example 42, 1-((2R,4aS,4bR,6aS,7S,7aS,8aR,8bR,8cR,10aR)-2-hydroxy-2,6a-dimethyloctadecahydrocyclopropa[4,5]cyclopenta[1,2-a]phenanthren-7-yl)-2-(1H-pyrazolo[3,4-c]pyridin-1-yl)ethan-1-one] | 0.0383
C[C@@]1(O)CC[C@H]2[C@H](CC[C@@H]3[C@@H]2CC[C@@]2(C)[C@H]3[C@@H]3C[C@@H]3[C@@H]2C(=O)Cn2cc(F)cn2)C1 [Example 46, 2-(4-Fluoro-1H-pyrazol-1-yl)-1-((2R,4aS,4bR,6aS,7S,7aS,8aR,8bR,8cR,10aR)-2-hydroxy-2,6a-dimethyloctadecahydrocyclopropa[4,5]cyclopenta[1,2-a]phenanthren-7-yl)ethan-1-one] | 0.0287
CCOC(=O)c1cnn(CC(=O)[C@H]2[C@H]3C[C@H]3[C@H]3[C@@H]4CC[C@@H]5C[C@](C)(O)CC[C@@H]5[C@H]4CC[C@@]32C)c1 [Example 51, Ethyl 1-(2-((2R,4aS,4bR,6aS,7S,7aS,8aR,8bR,8cR,10aR)-2-hydroxy-2,6a-dimethyloctadecahydrocyclopropa[4,5]cyclopenta[1,2-a]phenanthren-7-yl)-2-oxoethyl)-1H-pyrazole-4-carboxylate] | 0.005
C[C@@]1(O)CC[C@H]2[C@H](CC[C@@H]3[C@@H]2CC[C@@]2(C)[C@H]3[C@@H]3C[C@@H]3[C@@H]2C(=O)Cn2cc(C(=O)N3CC(F)(F)C3)cn2)C1 [Example 52] | 0.065
COc1ccc2nn(CC(=O)[C@H]3[C@H]4C[C@H]4[C@H]4[C@@H]5CC[C@@H]6C[C@](C)(O)CC[C@@H]6[C@H]5CC[C@@]43C)nc2c1 [Example 53, 1-((2R,4aS,4bR,6aS,7S,7aS,8aR,8bR,8cR,10aR)-2-Hydroxy-2,6a-dimethyloctadecahydrocyclopropa[4,5]cyclopenta[1,2-a]phenanthren-7-yl)-2-(5-methoxy-2H-benzo[d][1,2,3]triazol-2-yl)ethan-1-one] | 0.0123
COc1ccc2nnn(CC(=O)[C@H]3[C@H]4C[C@H]4[C@H]4[C@@H]5CC[C@@H]6C[C@](C)(O)CC[C@@H]6[C@H]5CC[C@@]43C)c2c1 [Example 54A, 1-((2R,4aS,4bR,6aS,7S,7aS,8aR,8bR,8cR,10aR)-2-Hydroxy-2,6a-dimethyloctadecahydrocyclopropa[4,5]cyclopenta[1,2-a]phenanthren-7-yl)-2-(6-methoxy-1H-benzo[d][1,2,3]triazol-1-yl)ethan-1-one] | 0.0118
COc1ccc2c(c1)nnn2CC(=O)[C@H]1[C@H]2C[C@H]2[C@H]2[C@@H]3CC[C@@H]4C[C@](C)(O)CC[C@@H]4[C@H]3CC[C@@]21C [Example 54B, 1-((2R,4aS,4bR,6aS,7S,7aS,8aR,8bR,8cR,10aR)-2-Hydroxy-2,6a-dimethyloctadecahydrocyclopropa[4,5]cyclopenta[1,2-a]phenanthren-7-yl)-2-(5-methoxy-1H-benzo[d][1,2,3]triazol-1-yl)ethan-1-one] | 0.0118
Cc1nnn(CC(=O)[C@H]2C[C@@H](C)[C@H]3[C@@H]4CC[C@@H]5C[C@](C)(O)CC[C@@H]5[C@H]4CC[C@@]32C)n1 [Example 62, 1-((3R,5R,8R,9R,10S,13S,14S,15R,17S)-3-Hydroxy-3,13,15-trimethylhexadecahydro-1H-cyclopenta[a]phenanthren-17-yl)-2-(5-methyl-2H-tetrazol-2-yl)ethan-1-one] | 0.0054
C[C@@H]1C[C@H](C(=O)COc2ccc(F)cc2F)[C@@]2(C)CC[C@H]3[C@@H](CC[C@@H]4C[C@](C)(O)CC[C@@H]43)[C@H]12 [Example 64, 2-(2,4-Difluorophenoxy)-1-((3R,5R,8R,9R,10S,13S,14S,15R,17S)-3-hydroxy-3,13,15-trimethylhexadecahydro-1H-cyclopenta[a]phenanthren-17-yl)ethan-1-one] | 0.0086
C[C@@H]1C[C@H](C(=O)Cn2cc(C#N)c(C3CC3)n2)[C@@]2(C)CC[C@H]3[C@@H](CC[C@@H]4C[C@](C)(O)CC[C@@H]43)[C@H]12 [Example 69, 3-Cyclopropyl-1-(2-((3R,5R,8R,9R,10S,13S,14S,15R,17S)-3-hydroxy-3,13,15-trimethylhexadecahydro-1H-cyclopenta[a]phenanthren-17-yl)-2-oxoethyl)-1H-pyrazole-4-carbo nitrile] | 0.0076
C[C@@H]1C[C@H](C(=O)Cn2cc(Cl)cn2)[C@@]2(C)CC[C@H]3[C@@H](CC[C@@H]4C[C@](C)(O)CC[C@@H]43)[C@H]12 [Example 91, 2-(4-Chloro-1H-pyrazol-1-yl)-1-((3R,5R,8R,9R,10S,13S,14S,15R,17S)-3-hydroxy-3,13,15-trimethylhexadecahydro-1H-cyclopenta[a]phenanthren-17-yl)ethan-1-one] | 0.0096
C[C@@]1(O)CC[C@H]2[C@H](CC[C@@H]3[C@@H]2CC[C@@]2(C)[C@H]3[C@@H]3C[C@@H]3[C@@H]2C(=O)Cn2nc3ccc(F)cc3n2)C1 [Example 92, 2-(5-Fluoro-2H-benzo[d][1,2,3]triazol-2-yl)-1-((2R,4aS,4bR,6aS,7S,7aS,8aR,8bR,8cR,10aR)-2-hydroxy-2,6a-dimethyloctadecahydrocyclopropa[4,5]cyclopenta[1,2-a]phenanthren-7-yl)ethan-1-one] | 0.0108
C[C@@]1(O)CC[C@H]2[C@H](CC[C@@H]3[C@@H]2CC[C@@]2(C)[C@H]3[C@@H]3C[C@@H]3[C@@H]2C(=O)Cn2nnc3cc(F)ccc32)C1 [Example 93A, 2-(5-Fluoro-1H-benzo[d][1,2,3]triazol-1-yl)-1-((2R,4aS,4bR,6aS,7S,7aS,8aR,8bR,8cR,10aR)-2-hydroxy-2,6a-dimethyloctadecahydrocyclopropa[4,5]cyclopenta[1,2-a]phenanthren-7-yl)ethan-1-one] | 0.003
C[C@@]1(O)CC[C@H]2[C@H](CC[C@@H]3[C@@H]2CC[C@@]2(C)[C@H]3[C@@H]3C[C@@H]3[C@@H]2C(=O)Cn2nnc3ccc(F)cc32)C1 [Example 93B, 2-(6-Fluoro-1H-benzo[d][1,2,3]triazol-1-yl)-1-((2R,4aS,4bR,6aS,7S,7aS,8aR,8bR,8cR,10aR)-2-hydroxy-2,6a-dimethyloctadecahydrocyclopropa[4,5]cyclopenta[1,2-a]phenanthren-7-yl)ethan-1-one] | 0.003
Cc1cnn(CC(=O)[C@H]2[C@H]3C[C@H]3[C@H]3[C@@H]4CC[C@@H]5C[C@](C)(O)CC[C@@H]5[C@H]4CC[C@@]32C)c1 [Example 95, 1-((2R,4aS,4bR,6aS,7S,7aS,8aR,8bR,8cR,10aR)-2-Hydroxy-2,6a-dimethyloctadecahydrocyclopropa[4,5]cyclopenta[1,2-a]phenanthren-7-yl)-2-(4-methyl-1H-pyrazol-1-yl)ethan-1-one] | 0.0341
C[C@@]1(O)CC[C@H]2[C@H](CC[C@@H]3[C@@H]2CC[C@@]2(C)[C@H]3[C@@H]3C[C@@H]3[C@@H]2C(=O)CNc2ccc(F)cc2)C1 [Example 97, 2-((4-Fluorophenyl)amino)-1-((2R,4aS,4bR,6aS,7S,7aS,8aR,8bR,8cR,10aR)-2-hydroxy-2,6a-dimethyloctadecahydrocyclopropa[4,5]cyclopenta[1,2-a]phenanthren-7-yl)ethan-1-one] | 0.0302

— patent US12139508B2, “Steroid derivative regulators, method for preparing the same, and uses thereof” (JIANGSU HANSOH PHARMACEUTICAL GROUP CO., LTD., priority 2018, dated 2024)
